In brackets after ≈: the same amount, converted by molar mass.
Key:
[1] = tested on: downy mildew pathogens of cucumber; experiment: Toxicity test on downy mildew pathogens of cucumber (disease index and control effect on whole cucumber plant); assay type: in vivo; details: for ATI: actual toxicity index
[2] = tested on: rust pathogens of wheat; experiment: whole plant or invertebrate; assay type: in vivo
[3] = tested on: oomycetes; details: background statement; cited from earlier work

O=[N+]([O-])c1cc(C(F)(F)F)c(Cl)c([N+](=O)[O-])c1Nc1ncc(C(F)(F)F)cc1Cl [Fluazinam, fluazinam]
EC50 ([1]; Cucumis sativus): 5.19 µg/mL (≈ 11.2 µM)
ATI ([1]; Table 9, with fluazinam): 97.88

Fc1ccc([C@]2(Cn3cncn3)O[C@H]2c2ccccc2Cl)cc1 (racemic) [Epoxiconazole, epoxiconazole]
EC50 ([2]; Triticum aestivum): 5.29 µg/mL (≈ 16 µM)

CC1COC(Cn2cncn2)(c2ccc(Oc3ccc(Cl)cc3)cc2Cl)O1 (stereo not shown) [Difenoconazole, difenoconazole]
EC50 ([2]; Triticum aestivum): 5.45 µg/mL (≈ 13.4 µM)

CC(C)OC(=O)N[C@H](C(=O)N[C@H](C)c1nc2ccc(F)cc2s1)C(C)C [Benthiavalicarb-isopropyl, benthiavalicarb-isopropyl]
EC50 ([1]; Cucumis sativus): 5.41 µg/mL (≈ 14.2 µM)
ATI ([1]; Table 1, with benthiavalicarb-isopropyl): 60.1

Cc1cc(C2CC2)nc(Nc2ccccc2)n1 [Cyprodinil, cyprodinil]
EC50 ([2]; Triticum aestivum): 5.87 µg/mL (≈ 26.1 µM)

O=C(S)c1cccc2nnsc12 [Acibenzolar, acibenzolar]
EC50 ([1]; Table 8, with acibenzolar): 5.38 µg/mL (≈ 27.4 µM)
ATI ([1]; Table 8, with acibenzolar): 91.45

COc1ccc(C(=CC(=O)N2CCOCC2)c2ccc(Cl)cc2)cc1OC [Dimethomorph, dimethomorph]
ATI ([1]; Table 2, with dimethomorph): 63.9
concentration at which an inhibitory effect is exerted [3]: < 0.25 µg/mL

CO/C=C(/C(=O)OC)c1ccccc1Oc1cc(Oc2ccccc2C#N)ncn1 [Azoxystrobin, azoxystrobin]
EC50 ([1]; Table 3, with azoxystrobin): 5.82 µg/mL (≈ 14.4 µM)
ATI ([1]; Table 3, with azoxystrobin): 72.34

N#Cc1sc2c(=O)c3ccccc3c(=O)c=2sc1C#N [Dithianon, dithianon]
EC50 ([1]; Cucumis sativus): 5.34 µg/mL (≈ 18 µM)
ATI ([1]; Table 5, with dithianon): 88.39

CCC(C)(NC(=O)c1cc(Cl)c(C)c(Cl)c1)C(=O)CCl (stereo not shown) [Zoxamide, zoxamide]
EC50 ([1]; Cucumis sativus): 5.11 µg/mL (≈ 15.2 µM)
ATI ([1]; Table 7, with zoxamide): 95.69

CO/C=C(/C(=O)OC)c1ccccc1COc1cccc(C(F)(F)F)n1 [Picoxystrobin, picoxystrobin]
EC50 ([2]; Table 15, with picoxystrobin): 5.68 µg/mL (≈ 15.5 µM)
ATI ([2]; actual toxicity index, Table 15, with picoxystrobin): 87.68

polyoxin
EC50 ([1]; Table 6, with polyoxin): 5.24 µg/mL
ATI ([1]; Table 6, with polyoxin): 89.89

COC(=O)N(OC)c1ccccc1COc1ccn(-c2ccc(Cl)cc2)n1 [Pyraclostrobin, pyraclostrobin]
EC50 ([2]; Triticum aestivum): 4.98 µg/mL (≈ 12.8 µM)

CC(C)NC(=O)N1CC(=O)N(c2cc(Cl)cc(Cl)c2)C1=O [Iprodione, iprodione]
EC50 ([2]; Triticum aestivum): 5.35 µg/mL (≈ 16.2 µM)

Cc1nc(C(F)(F)F)c(C(=O)Nc2c(Br)cc(OC(F)(F)F)cc2Br)s1 [Thifluzamide, thifluzamide]
EC50 ([2]; Triticum aestivum): 5.12 µg/mL (≈ 9.7 µM)

OC(Cc1ccccc1Cl)(Cn1nc[nH]c1=S)C1(Cl)CC1 (stereo not shown) [Prothioconazole, prothioconazole]
EC50 ([2]; Triticum aestivum): 5.12 µg/mL (≈ 14.9 µM)

CSC1=N[C@@](C)(c2ccccc2)C(=O)N1Nc1ccccc1 [Fenamidone, fenamidone]
EC50 ([1]; Cucumis sativus): 5.12 µg/mL (≈ 16.4 µM)
ATI ([1]; Table 4, with fenamidone): 107.62

CON=C(C(=O)OC)c1ccccc1CON=C(C)c1cccc(C(F)(F)F)c1 [Trifloxystrobin, trifloxystrobin]
EC50 ([2]; Triticum aestivum): 4.75 µg/mL (≈ 11.6 µM)

From patent US9867373B2, “Fungicidal composition having synergistic effect” (JIANGSU HUIFENG AGROCHEMICAL CO., LTD., priority 2013, dated 2018)
